Here are results for five compounds from patent publication US8497237B2 (Signature Therapeutics, Inc., priority 2011, dated 2013).

A word on the half-life: it is how long it takes for the measured level to halve.

A short description of series [1]: Oral administration of Compound KC-7 co-dosed with trypsin inhibitor Compound 109 to rats (oxycodone in plasma). The note with it: PO co-dosing, indicated by suppressed Cmax and/or delayed Tmax. In kind it is in vivo, rat.
A short description of series [2]: Spacer leaving group cyclization rate (disappearance of compound in phosphate buffer). Conditions: for half-life (compound disappearance, cyclization): 2.18 mM initial, 50 mM pH 7.4 phosphate buffer, 20° C.
The nature of series [3]: Pharmacokinetics following PO administration to dogs (oxycodone in plasma).
Another series has as its target T1, trypsin (Bos taurus, UniProt P00760).
T1 construct: trypsin from bovine pancreas; purchased Sigma-Aldrich T8003; host or cells: bovine pancreas (tissue-derived)
T1 sequence (P00760 24-246): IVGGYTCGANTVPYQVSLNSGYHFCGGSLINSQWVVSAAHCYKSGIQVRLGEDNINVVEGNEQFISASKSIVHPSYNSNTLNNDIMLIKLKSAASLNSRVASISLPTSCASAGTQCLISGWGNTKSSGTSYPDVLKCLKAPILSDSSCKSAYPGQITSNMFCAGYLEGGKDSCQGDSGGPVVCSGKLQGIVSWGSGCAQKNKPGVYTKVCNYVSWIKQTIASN
Briefly: In vitro trypsin-mediated prodrug cleavage. In kind it is biochemical, bovine. Conditions: bovine, trypsin from bovine pancreas; 0.761 mM prodrug, Tris pH 8, 37° C.; adjusted to 4815 BAEE U/mL trypsin. As for the experimental part:
(§1) The reactions were conducted at 37° C. for 24 h.
(§2) Table 3 indicates the results of exposure of Compound KC-7 to trypsin. […] Table 3 also indicates the cyclization rates of the cyclizable spacer leaving group of Compound KC-23. The results are expressed as half-life of compound disappearance. Since Compound KC-23 is a diastereomer, two peaks (A and B) were analyzed; the peak area of peak B was greater than that of peak A.

The target in series [4] is T2, trypsin from bovine pancreas (Bos taurus, UniProt P00760).
T2 construct: trypsin from bovine pancreas; purchased Sigma-Aldrich T8003; host or cells: bovine pancreas (tissue-derived)
T2 sequence (P00760 24-246): T1 sequence (P00760 24-246)
Briefly: In vitro trypsin-mediated prodrug cleavage. Type of series: biochemical. The method, then: as §1, §2

As to `N=C(N)c1ccc2cc(OC(=O)c3ccc(N=C(N)N)cc3)ccc2c1` [Compound 109, 6-carbamimidoylnaphthalen-2-yl 4-(diaminomethyleneamino) benzoate], the “effect of trypsin inhibitor on oxycodone release from Compound KC-7” value in series [1] is listed as “attenuate Compound KC-7's ability to release oxycodone in rats in a dose-dependent manner”.
Consider `COc1ccc2c3c1O[C@H]1C(OC(=O)N(C)[C@@H](CNC(=O)[C@H](CCCNC(=N)N)NC(=O)CNC(C)=O)C(=O)N(C)CC(=O)O)=CC[C@@]4(O)[C@@H](C2)N(C)CC[C@]314` [Compound KC-7, N-1-[(S)-2-(oxycodone-6-enol-carbonyl-methyl-amino)-2-carbonyl-sarcosine-ethylamine]-arginine-glycine-acetate], for which the “cyclization of the spacer leaving group” value in series [2] (shown by the cyclization rate of Compound KC-23) is “can cyclize”. In series [3] (dogs, PO), the “plasma PK profile of oxycodone release compared to OxyContin tablets and oxycodone” value is given as “resembles that of OxyContin® tablets more than that of oxycodone”; the “release of oxycodone into dog plasma compared to Compound KC-3” value is “significantly enhanced release of oxycodone into dog plasma (higher Cmax and AUC) as well as a more rapid Tmax”. Besides, the half-life at 0.761 mM on trypsin was 11.76 ± 0.0186 min. In addition, the OC formation rate in series [4] (0.761 mM prodrug, Tris pH 8, 37° C.) was found to be 0.339 ± 0.032 μmol/h/BAEE U. Further, in series [4] (in vitro), the cleavage by trypsin entry is reported as “can be cleaved by trypsin”.
As to “N-1-[2-(oxycodone-6-enol-carbonyl-methyl-amino)-ethylamine]-arginine-malonic acid [Compound KC-3]”, in series [3] (oxycodone in dog plasma, AUC 0 to 24 h, PO […] (KC-7 4.88, KC-3 4.15, oxycodone 2 mg/kg), OxyContin one 20 mg tablet), the “AUC ± sd” value is 65.6 ± 22 ng·h/mL. For the same compound, the “OC Cmax ± sd” value in series [3] (oxycodone in dog plasma, PO […] (KC-7 4.88, KC-3 4.15, oxycodone 2 mg/kg), OxyContin one 20 mg tablet) worked out at 10.2 ± 3.3 ng/mL.
As to “[(S)-1-(oxycodone-6-enol-carbonyl-methyl-amino)-1-carbonyl-sarcosine]ethylamine [KC-23, peak A]”, in series [2], the “half-life (compound disappearance, cyclization)” value stood at 7.22 ± 0.03 h.
The same measure, in the same setting: next, “[(S)-1-(oxycodone-6-enol-carbonyl-methyl-amino)-1-carbonyl-sarcosine]ethylamine [KC-23, peak B]”: 5.80 ± 0.08 h.
